According to publication PMC3636874, “An Antedrug of the CXCL12 Neutraligand Blocks Experimental Allergic Asthma without Systemic Effect in Mice” (The Journal of Biological Chemistry, 2013):
Like-named read-outs stand apart in the source and are kept apart here.

Legend:
[1] = Stability in mouse serum; type: in vitro ADME; conditions: 37 °C; for half-life at 20 μM: mouse, mouse serum
Method: Solubility and stability studies were performed on a Gilson HPLC system with a photodiode array detector, an autosampler, and a Valco injector. Data acquisition and processing were performed with Trilution LC version 2.0 software. Measurements were carried out at 21 ± 1 °C. A 2.6-μm Kinetex column (50 × 4.6 mm) was used for stability studies in biological media, and a 5-μm Luna C18(2) column (50 × 4.6 mm) was used for solubility and chemical stability analysis. Both columns were purchased from Phenomenex. The injection volume was 20 μl, the mobile phase flow rate was 2 ml/min, and the following program was applied for the elution: 0–0.2 min, 0% B; 0.2–2.7 min, 0–100% B; 2.7–3.2 min, 100% B; 3.2–3.4 min, 100–0% B; 3.4–6.1 min, 0% B. Solvent B was HPLC grade acetonitrile (Sigma-Aldrich CHROMASOLV). The aqueous solvent contained 0.1% trifluoroacetic acid, and the detection wavelength was 365 nm.
Stability of chalcones was determined in mouse serum with or without 10% HP-βCD at 37 °C up to 16 h. For each compound, the 10 mM DMSO stock solution was diluted in serum to a final concentration of 20 μM with 1% DMSO. For the measurements with HP-β-cyclodextrin, a solution of PBS (pH 7.4) containing 10% (v/w) HP-βCD was saturated with compound powder. The saturated solution was then diluted in murine serum to a final compound concentration of 20 μM. The mixture was divided into five aliquots. The incubation of each aliquot was stopped at t0 and 30 min, 1, 2, and 16 h for chalcone 4 and at t0 and 15, 30, 45, and 60 min for CN-chalcone 4 by adding one volume of ice cold acetonitrile. Samples were stirred for 3 min, sonicated for 3 min, and then centrifuged at 4 °C before HPLC injection. The percentage of remaining test compound relative to t0 was measured by monitoring the peak area on the chromatogram.

[2] = test system: inflammatory cell recruitment in the airways of OVA-sensitized and challenged BALB/c mice; experiment: 8-day murine model of airway hypereosinophilia (OVA sensitization and challenge), cell counts in BALF; type: in vivo, mouse; conditions: for effect on eosinophil / inflammatory cell recruitment in BALF after OVA challenge, intranasal: intranasal 300 nmol/kg in 10% HP-βCD, 2 h before each challenge; for inhibition of eosinophil counts in BALF: intranasal, 300–500 nmol/kg in 10% HP-βCD, 2 h before each OVA challenge; for effect on inflammatory cell counts in BALF after OVA challenge, intraperitoneal in HP-βCD: twice daily 20 μmol/kg in 10% HP-βCD, 3 days; for effect on airway inflammation (BALF cell recruitment) after OVA challenge, intraperitoneal in carboxymethylcellulose: up to 350 μmol/kg once a day for 3 days in 1% carboxymethylcellulose
Method: The in vivo activity of the compounds was assessed in an 8-day model of hypereosinophilia created by immunization and challenge to ovalbumin in mice. Briefly, 9-week-old male BALB/c mice were sensitized by intraperitoneal injection of a mixture of 50 μg of ovalbumin (OVA, grade V; Sigma-Aldrich) adsorbed on aluminum hydroxide (2 mg; Sigma-Aldrich) in 0.1 ml of saline on days 0, 1, and 2. Mice were challenged intranasally with 10 μg of OVA in 25 μl of saline (12.5 μl/nostril) on days 5, 6, and 7. Control mice received intraperitoneal and intranasal administrations of saline alone. Intranasal administrations were performed under anesthesia with 50 mg/kg ketamine and 3.33 mg/kg xylazine given intraperitoneally. Food and water were supplied ad libitum. Animal experimentation was conducted with the approval of the government body that regulates animal research in France. The chalcone compounds were administered either by the intraperitoneal or intranasal routes. In a first set of experiments, mice received either chalcone 4 or carbonitrile-chalcone 4 solubilized in PBS with 10% HP-βCD (C0926, Sigma) by intranasal injection 2 h before each nasal OVA or saline challenge. In a second set of experiments, mice received CN-chalcone 4, vanillin, or parachlorobenzoylacetonitrile intranasally, in PBS with HP-βCD 10%, 2 h before each OVA or saline challenge. In the last set of experiments, mice received chalcone 4 or CN-chalcone 4 in suspension in carboxymethylcellulose 1% or solubilized in PBS with HP-βCD 10% and administered by intraperitoneal injection 2 h before each OVA or saline challenge. Collection of bronchoalveolar lavage fluid (BALF) was performed 24 h after the last OVA challenge. Mice were deeply anesthetized by intraperitoneal injection of 150 mg/kg ketamine and 10 mg/kg xylazine. A plastic canula was inserted into the trachea, and airways were lavaged by 10 instillations of 0.5 ml of ice-cold saline supplemented with 2.6 mM EDTA (saline-EDTA). Total and differential cell counts in the BALF were performed after centrifugation (300 × g for 5 min at 4 °C) to pellet cells. Erythrocytes were lysed by hypotonic shock by the addition of 1.5 ml of distilled H2O, followed by the addition of 0.5 ml of 0.6 M KCl. Cells were centrifuged and resuspended in 500 μl of ice-cold saline-EDTA, and total cell counts were determined using a hemocytometer (Neubauer's chamber). Differential cell counts were assessed on cytologic preparation obtained by cytocentrifugation (Cytospin 3, Shandon Ltd.) of 200 μl of diluted BALF (250,000 cells/ml in ice-cold saline-EDTA). Slides were stained with Hemacolor (Merck), and counts were performed on at least 400 cells for each preparation. Differential counts were expressed as absolute numbers or as a percentage of the total number of cells.
The in vivo activity of CN-chalcone 4 was assayed in a recently developed 8-day mouse model of airway hypereosinophilia ([24]). In this model, mice are sensitized by intraperitoneal injection of OVA (50 μg) adsorbed on 2 mg of aluminum hydroxide in 0.1 ml of saline on days 0, 1, and 2. Mice are then challenged intranasally with 10 μg of OVA in 25 μl of saline (12.5 μl/nostril) on days 5, 6, and 7. Drugs to be tested can be administered either systemically by the intraperitoneal route or locally by the intranasal route. The intranasal route mimics the inhalation exposure used in humans, which is the preferred and well accepted administration for inflamed airway treatment, in particular asthma. Thus, unless otherwise stated, drugs were administered intranasally in this study. Due to limited solubility of chalcone 4 (9 ± 1 μM) and CN-chalcone 4 (16 ± 2 μM) in saline buffer, drugs were dissolved in physiological solutions complemented with HP-βCD (10%, w/w). Under such conditions, chalcone 4 and CN-chalcone 4 could be dissolved at maximal concentrations reaching 690 ± 44 and 493 ± 36 μM, respectively.

[3] = design: method as in PMID 24900366; conditions: cited from earlier work
[4] = 20 μM, with 10% HP-βCD, read-out: Stability half-life (t1/2), murine serum, 10% β-cyclodextrine (converted)
[5] = 20 μM, read-out: Stability half-life (t1/2), murine serum (converted)

Row | SMILES | half-life at 20 μM [1, 4] [h] | half-life at 20 μM [1, 5] [h] | half-life at 20 μM ([1]; read-out: t½ in murine serum) [h] | effect on eosinophil / inflammatory cell recruitment in BALF after OVA challenge, intranasal [2] | inhibition of eosinophil counts in BALF [2] | effect on inflammatory cell counts in BALF after OVA challenge, intraperitoneal in HP-βCD [2] | effect on airway inflammation (BALF cell recruitment) after OVA challenge, intraperitoneal in carboxymethylcellulose [2] | percentage of starting molecule recovered, murine serum ([1]; at 16 h) [%] | percentage of starting molecule recovered, murine serum, 10% β-cyclodextrine ([1]; at 16 h) [%] | Stability half-life (t1/2), lung homogenate ([3]; mouse lung homogenate) [h] | percentage of starting molecule recovered, lung homogenate ([3]; time not given) [%]
1 | COc1cc(/C=C(\C#N)C(=O)c2ccc(Cl)cc2)ccc1O [CN-chalcone 4, (E)-2-(4-chlorobenzoyl)-3-(4-hydroxy-3-methoxyphenyl)acrylonitrile] | 1.3 | 0.3 | 0.333 | as potent as chalcone 4 | up to 50% | did not affect any inflammatory cell counts | inactive |  |  |  | 
2 | COc1cc(/C=C/C(=O)c2ccc(Cl)cc2)ccc1O [chalcone 4] | > 16 | > 16 |  | Significant reduction of eosinophil recruitment | up to 50% | significantly reducing eosinophils, neutrophils, and T cell counts in BALF | dose-dependent anti-inflammatory activity | 96 | 91 | > 6 | 60
